According to article PMC2794843, “Differential regulation of muscarinic M1 receptors by orthosteric and allosteric ligands” (BMC Pharmacology, 2009):

What was measured:
[1] = molecular target: T1, human muscarinic M1 receptor (hM1) (Homo sapiens, UniProt P11229); test: R-SAT, transiently transfected NIH-3T3 cells; format: cell-based; conditions: for pEC50: agonist
T1 construct: gene CHRM1; full-length hM1
T1 sequence (P11229 1-460): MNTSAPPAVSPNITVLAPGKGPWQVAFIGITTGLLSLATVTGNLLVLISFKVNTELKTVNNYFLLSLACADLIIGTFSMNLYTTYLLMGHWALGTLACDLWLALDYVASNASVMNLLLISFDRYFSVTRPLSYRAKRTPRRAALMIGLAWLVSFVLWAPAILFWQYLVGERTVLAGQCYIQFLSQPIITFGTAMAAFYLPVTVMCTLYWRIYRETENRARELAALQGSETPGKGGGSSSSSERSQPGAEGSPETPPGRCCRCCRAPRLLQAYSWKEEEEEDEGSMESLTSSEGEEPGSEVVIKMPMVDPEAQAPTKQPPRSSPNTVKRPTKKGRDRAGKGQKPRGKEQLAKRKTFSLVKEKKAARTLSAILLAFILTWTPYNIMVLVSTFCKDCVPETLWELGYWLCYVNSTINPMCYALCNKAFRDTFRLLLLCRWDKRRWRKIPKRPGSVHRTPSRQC
Text: R-SAT, transiently transfected NIH-3T3 cells on human muscarinic M1 receptor (hM1)

[2] = molecular target: T1, human muscarinic M1 receptor (hM1); test: PI hydrolysis, CHO-M1 cells; format: cell-based; conditions: partial agonist; 60 min, 37°C, 10 mM LiCl; allosteric component
Text: PI hydrolysis, CHO-M1 cells on human muscarinic M1 receptor (hM1)

SMILES | pEC50 [1] | other results
CCCCC1CCN(CCCN2C(=O)COc3cc(Cl)ccc32)CC1 [AC-260515, 4-[3-(4-butyl-piperidin-1-yl)-propyl]-7-chloro-2H-benzo[b][1, 4]oxazin-3-one] |  | EC50 [1]: 251 nM
CCCCC1CCN(CCCN2C(=O)COc3cc(F)ccc32)CC1 [AC-260977, (R)-4-[3-(4-butylpiperidin-1-yl)propyl]-7-fluoro-2H-benzo[b][1, 4]oxazin-3-one] | 7.7 ± 0.1 | 
O=C1COc2cc(F)ccc2N1CCCN1CCC(OCC2CC2)CC1 [AC-262469, 4-[3-(4-cyclopropylmethyloxypiperidin-1-yl)propyl]-7-fluoro-2H-benzo[b][1, 4]oxazin-3-one] | 7.2 ± 0 | 
Clc1ccc2c(c1)N=C(N1CCNCC1)c1ccccc1N2 [NDMC] |  | PI Hydrolysis / pEC50 [2]: 7.1 ± 0.4
